The values below come from patent US20250346606A1, “CAMPTOTHECIN COMPOUND, PREPARATION METHOD THEREFOR, AND APPLICATION THEREOF” (SICHUAN KELUN-BIOTECH BIOPHARMACEUTICAL CO., LTD., priority 2021, published 2025).

In assay [1] the test system is HT29 cells. In words: Inhibitory effect of compounds on HT29 cell proliferation. It counts as cell-based, Human. To be noted: read-out: IC50, inhibitory activity on HT29 cell proliferation. As for the experimental part:
(1) Cell plating: First, tumor cells HT29 were cultured in corresponding medium, then digested with trypsin, centrifuged, resuspended, and counted, and the cells were adjusted to an appropriate concentration for plating.
(§1) Co-incubation of the compound of the present disclosure and tumor cells: after the cells adhered to the wall, the medium was removed, and the diluted bioactive molecule (the compound of the present disclosure) was added to the wells of the above plate, and incubated for 72 h.
(§2) In vitro cell viability detection: After the incubation, 50 μL of Cell Counting-Lite™ 2.0 reagent (Vazyme/Novazyme) was added to each well, shaken and mixed well in the dark, reacted for 10 minutes, and then the detection was carried out with a microplate reader (manufacturer: BMG, Model: PHERAStar-FS) for reading. The background RLU was obtained by using cell-free medium (with Cell Counting-Lite™), and the vehicle RLU was obtained by using cell-containing medium (with Cell Counting-Lite™). Cell inhibition rate=1−(sample RLU−background RLU)/(solvent RLU−background RLU)×100%. According to the four-parameter model fitting curve, the half maximal inhibitory concentration (IC50) of the compound was calculated, and the detection results were shown in Table 2.

Assay [2] deals with NCI-N87 cells. In words: Inhibitory effect of compounds on NCI-N87 cell proliferation. It counts as cell-based, Human. On the procedure:
(1) Cell plating: First, tumor cells NCI-N87 were cultured in corresponding medium, then digested with trypsin, centrifuged, resuspended, and counted, and the cells were adjusted to an appropriate concentration for plating.
as §1
as §2, with “Table 12.” for “Table 2.”

Assay [3] has as its system Jeko-1 cells. Briefly: Inhibitory effect of compounds on Jeko-1 cell proliferation. As to conditions: read-out: IC50, inhibitory activity on Jeko-1 cell proliferation. It counts as cell-based, Human. On the procedure: (1) Cell plating: First, tumor cells Jeko-1 were cultured in corresponding medium, then digested with trypsin, centrifuged, resuspended, and counted, and the cells were adjusted to an appropriate concentration for plating.
as §1
as §2, with “Table 20.” for “Table 2.”

Assay [4] has as its system HCC1806 cells. Briefly: Inhibitory effect of compounds on HCC1806 cell proliferation. It is filed as cell-based, Human. On the procedure:
(1) Cell plating: First, tumor cells HCC1806 were cultured in corresponding medium, then digested with trypsin, centrifuged, resuspended, and counted, and the cells were adjusted to an appropriate concentration for plating.
as §1
as §2, with “Table 6.” for “Table 2.”

Assay [5] has as its system NCI-H358 cells. Briefly: Inhibitory effect of compounds on NCI-H358 cell proliferation. It counts as cell-based, Human. On the procedure: (1) Cell plating: First, tumor cells NCI-H358 were cultured in corresponding medium, then digested with trypsin, centrifuged, resuspended, and counted, and the cells were adjusted to an appropriate concentration for plating.
as §1
as §2, with “Table 10.” for “Table 2.”

The subject of assay [6] is MDA-MB-453 cells. Briefly: Inhibitory effect of compounds on MDA-MB-453 cell proliferation. It counts as cell-based. As to conditions: MDA-MB-453 human breast cancer cells, 72 h incubation, Cell Counting-Lite 2.0. As for the experimental part:
(1) Cell plating: First, tumor cells MDA-MB-453 were cultured in corresponding medium, then digested with trypsin, centrifuged, resuspended, and counted, and the cells were adjusted to an appropriate concentration for plating.
as §1
as §2, with “Table 22.” for “Table 2.”

Where [7] appears, read: Homo sapiens, NCI-N87, 72 h, read-out: IC50, inhibitory activity on NCI-N87 cell proliferation, NCI-N87 human gastric cancer cells, 72 h incubation, Cell Counting-Lite 2.0.
Setting [8] is: Homo sapiens, HCC1806, 72 h, read-out: IC50, inhibitory activity on HCC1806 cell proliferation, HCC1806 human breast squamous carcinoma cells, 72 h incubation, Cell Counting-Lite 2.0.
Setting [9] is: Homo sapiens, NCI-H358, 72 h, read-out: IC50, inhibitory activity on NCI-H358 cell proliferation, NCI-H358 human non-small cell lung cancer cells, 72 h incubation, Cell Counting-Lite 2.0.
The mark [10] stands for this setting: NCI-H358 human non-small cell lung cancer cells, 72 h incubation, Cell Counting-Lite 2.0, read-out: IC50, inhibitory activity on NCI-H358 cell proliferation.
Where [11] appears, read: NCI-N87 human gastric cancer cells, 72 h incubation, Cell Counting-Lite 2.0, read-out: IC50, inhibitory activity on NCI-N87 cell proliferation.
Where [12] appears, read: Jeko-1 human mantle cell lymphoma cells, 72 h incubation, Cell Counting-Lite 2.0.
Where [13] appears, read: HCC1806 human breast squamous carcinoma cells, 72 h incubation, Cell Counting-Lite 2.0, read-out: IC50, inhibitory activity on HCC1806 cell proliferation.

Molecules are shown by their SMILES. Read-outs that look alike come from different tables or passages of the source.

In the case of `CC[C@@]1(O)C(=O)OCc2c1cc1n(c2=O)Cc2c-1nc1cc(F)c(C)c3c1c2[C@@H](CN)CC3` (single isomer, unassigned) [Example 13 (5-7-A)], the IC50 is 3.13 nM in assay [1] (Homo sapiens, HT-29, 72 h); 6.03 nM in assay [2] (setting [7]); 0.16 nM in assay [3] (Homo sapiens, JeKo-1, 72 h).
For `CC[C@@]1(O)C(=O)OCc2c1cc1n(c2=O)Cc2c-1nc1cc(F)c(Cl)c3c1c2[C@H](NC[C@H](C)O)CC3` (single isomer, unassigned) [Example 17 (3-7-B)], the IC50 in assay [4] (setting [8]) stood at 1.94 nM; in assay [5] (setting [9]) it was 22.2 nM; in assay [2] (setting [7]), 4.54 nM; in assay [6] (Homo sapiens, MDA-MB-453, 72 h) it was 4.87 nM.
Taken in the same sequence, the figures for `CC[C@@]1(O)C(=O)OCc2c1cc1n(c2=O)Cc2c-1nc1cc(F)c(Cl)c3c1c2[C@@H](NC[C@@H](C)O)CC3` (single isomer, unassigned) [Example 25 (3-26-A)] were 1.27 nM, 31.6 nM, 1.23 nM and 3.95 nM.
Regarding `C=C[C@H](O)C(=O)N[C@H]1CCc2c(C)c(F)cc3nc4c(c1c23)Cn1c-4cc2c(c1=O)COC(=O)[C@]2(O)CC` [Example 2 (1-7-A)], the IC50 is 11.4 nM in assay [5] (setting [10]), 2.7 nM in assay [2] (setting [11]) and 0.15 nM in assay [3] (setting [12]).
On the same counts, the results for `C=C[C@@H](O)C(=O)N[C@H]1CCc2c(C)c(F)cc3nc4c(c1c23)Cn1c-4cc2c(c1=O)COC(=O)[C@]2(O)CC` [Example 2 (1-7-B)] are 51.5 nM, 5.48 nM and 0.66 nM.
For `CC[C@@]1(O)C(=O)OCc2c1cc1n(c2=O)Cc2c-1nc1cc(F)c(Cl)c3c1c2[C@H](NC(=O)CO)CC3` [Example 9 (3-4-B), N-((1R,9S)-4-Chloro-9-ethyl-5-fluoro-9-hydroxy-10,13-dioxo-2,3,9,10,13,15-hexahydro-1H, 12H-benzo[de]pyrano[3′,4:6,7]indolizino[1,2-b]quinolin-1-yl)-2-hydroxyacetamide], the IC50 in assay [1] (HT29 human colon cancer cells, 72 h incubation, Cell Counting-Lite 2.0) was 4.98 nM; in assay [2] (setting [11]) it was 6.51 nM; in assay [3] (setting [12]) it was 0.15 nM.
`CC[C@@]1(O)C(=O)OCc2c1cc1n(c2=O)Cc2c-1nc1cc(F)c(Cl)c3c1c2[C@@H](NC(=O)C1(O)CC1)CC3` [Example 18 (3-17-A)]: the IC50 in assay [4] (setting [13]) amounted to 1.7 nM; in assay [5] (setting [10]), 13.3 nM; in assay [2] (setting [11]), 3.01 nM; in assay [6] it was 3.32 nM.
Taken in the same sequence, the figures for `CC[C@@]1(O)C(=O)OCc2c1cc1n(c2=O)Cc2c-1nc1cc(F)c(Cl)c3c1c2[C@H](NC(=O)C1(O)CC1)CC3` [Example 18 (3-17-B)] were 2.26 nM, 37.3 nM, 4.19 nM and 6.16 nM.
As for `CC[C@@]1(O)C(=O)OCc2c1cc1n(c2=O)Cc2c-1nc1cc(F)c(C3CC3)c3c1c2[C@@H](NC(=O)CO)CC3` [Example 19 (5-22-A), N-((1S,9S)-4-cyclopropyl-9-ethyl-5-fluoro-9-hydroxy-10,13-dioxo-1,2,3,9,10,12,13,15-tetrahydrobenzo[de]pyrano[3′,4′:6,7]indolizino[1,2-b]quinolin-1-yl)-2-hydroxyacetamide], the IC50 in assay [4] (setting [13]) was found to be 2.57 nM; in assay [5] (setting [10]), 29.9 nM; in assay [2] (setting [11]) it was 3.35 nM; in assay [6], 7.34 nM.
On the same counts, the results for `CC[C@@]1(O)C(=O)OCc2c1cc1n(c2=O)Cc2c-1nc1cc(F)c(C3CC3)c3c1c2[C@H](NC(=O)CO)CC3` [Example 19 (5-22-B), N-((1R,9S)-4-cyclopropyl-9-ethyl-5-fluoro-9-hydroxy-10,13-dioxo-1,2,3,9,10,12,13,15-tetrahydrobenzo[de]pyrano[3′,4′:6,7]indolizino[1,2-b]quinolin-1-yl)-2-hydroxyacetamide] are 3.71 nM, 61.4 nM, 5.51 nM and 5.67 nM.
For the compound `CC[C@@]1(O)C(=O)OCc2c1cc1n(c2=O)Cc2c-1nc1cc(Cl)c(C)c3c1c2[C@@H](NC[C@@H](C)O)CC3` [Example 24 (2-27-A), (2R)—N-((1S,9S)-5-Chloro-9-ethyl-9-hydroxy-4-methyl-10,13-dioxo-2,3,9,10,13,15-hexahydro-1H,12H-benzo[de]pyrano[3′,4:6,7]indolizino[1,2-b]quinolin-1-yl)-2-hydroxypropylamine], the IC50 came to 4.55 nM in assay [4] (setting [13]), 56.5 nM in assay [5] (setting [10]), 8.32 nM in assay [2] (setting [11]) and 11.8 nM in assay [6].
